Marks after values point to notes of the source that are not given here.
Tests used:
[1] = Body weight and food intake of OLETF rats; type: in vivo, rat; conditions: M±SE
Description: The rats that were the subjects of the experiment were divided into three groups: a Control group to be fed a control diet, a Hercampuri group to be fed a Hercampuri-enriched diet, and an Acarbose group to be fed an Acarbose-enriched diet. […] This control diet was purified animal feed containing casein as the source of protein. The Hercampuri-enriched diet fed to the rats in the Hercampuri group was produced by adding Hercampuri extract powder at a mixing ratio of 2% to the control diet. The Acarbose-enriched diet fed to the rats in the Acarbose group was produced by adding Acarbose (product of Bayer AG) at a mixing ratio of 0.2% to the control diet. For each experimental diet, the amount of the added subject ingredient was compensated for by adjusting the amount of corn starch. Male OLETF rats and LETO rats delivered from Tokushima Research Institute of Otsuka Pharmaceutical Co., Ltd. were used as the subject animals. Each one of these OLETF rats and LETO rats was born during the period of June 10th to June 13th in 2002. […] The rats had free access to feed (CE-2: product of Clea Japan, Inc.) and drinking water (tap water). […] During the experiment, the body weights and the amounts of food intake were measured every other day. […]

[2] = test system: Otsuka Long-Evans Tokushima Fatty (OLETF) rats; assay: Serum and lipoprotein fraction cholesterol, phospholipid, triglyceride in OLETF rats; type: in vivo, rat; conditions: end of six-week experiment, M±SE
Description: Six week after the initiation of the experiment, without prior abstinence from feed, each rat was anesthetized by administering approximately 50 mg/kg of pentobarbital sodium (product of Dainippon Pharmaceutical Co., Ltd.) into the abdominal cavity to remove all of its blood via the abdominal aorta with an injection syringe. This operation was performed during the period from 10:00 am to 12:00 am. The blood obtained by the operation was set aside for 1 hour at room temperature and subsequently at 4° C. for a period in the range of 1 to 2 hours. Thereafter, blood serum was separated by means of centrifugation at 2500 rpm at 4° C. for 10 minutes. Fractions of various lipoproteins were separated from the blood serum obtained at the time of whole blood extraction. […] Therefore, it is not possible with step-wise density gradient ultracentrifugation employed for this experiment to exclusively separate native LDL, and the LDL fraction separated in this stage contains HDL1 that existed together with LDL. The cholesterol, phospholipid, and triglyceride contents in the serum and each lipoprotein fraction were enzymatically measured with commercial kits (Cholesterol E-Test Wako, Phospholipid C-Test Wako, and Triglyceride E-Test Wako; products of Wako Pure Chemical Industries, Ltd.), respectively.

[3] = test system: Otsuka Long-Evans Tokushima Fatty (OLETF) rats; assay: Serum glucose, free fatty acids and insulin in OLETF rats; type: in vivo, rat; conditions: end of six-week experiment, M±SE
Description: Six week after the initiation of the experiment, without prior abstinence from feed, each rat was anesthetized by administering approximately 50 mg/kg of pentobarbital sodium (product of Dainippon Pharmaceutical Co., Ltd.) into the abdominal cavity to remove all of its blood via the abdominal aorta with an injection syringe. This operation was performed during the period from 10:00 am to 12:00 am. The blood obtained by the operation was set aside for 1 hour at room temperature and subsequently at 4° C. for a period in the range of 1 to 2 hours. Thereafter, blood serum was separated by means of centrifugation at 2500 rpm at 4° C. for 10 minutes. Furthermore, the glucose and free fatty acid content in he serum were enzymatically measured with commercial kits (Glucose CII-Test Wako and NEFA C-Test Wako; products of Wako Pure Chemical Industries, Ltd.), respectively. The serum insulin content was determined in accordance with the Sandwich ELISA (enzyme-linked immunosorbent assay) method using a Rat insulin ELISA kit (product of Shibayagi Co., Ltd.). Therefore, the insulin content is shown in terms of Immuno-reactive insulin (IRI; pg/ml).

[4] = test system: Otsuka Long-Evans Tokushima Fatty (OLETF) rats; assay: Serum apolipoprotein contents in OLETF rats; type: in vivo, rat; conditions: M±SE
Description: The respective contents of various apolipoproteins, i.e. apoA-I, apoB, and apoE, as well as the respective apoE contents in the LDL and HDL fractions, were determined by the rocket immunoelectrophoresis method described in “Age-related changes in serum concentrations of apolipoprotein A-I, E, and A-IV in SHRSP” by Hiroshi Ogawa and 4 other members (G.B., Journal of Hypertension, vol. 4, p 429-453, 1986). The aforementioned immunoelectrophoresis method is in accordance with the Laurell method and adjustment of a part of the method presented by C. B. Laurell in “Quantitative estimation of proteins by electrophoresis in agarose-gel containing antibodies” (USA, Analytical Biochemistry, vol. 15, p 42-52, 1966). The antibodies used for this measurement were specific antibodies obtained from rabbits by using antigens that were various apolipoproteins separated and refined from rat serum. Furthermore, apoB/apoA-I was calculated from the results of measurement of apoA-I and apoB.

[5] = test system: Otsuka Long-Evans Tokushima Fatty (OLETF) rats; assay: Liver weight ratio and liver lipid contents in OLETF rats; type: in vivo, rat; conditions: end of six-week experiment, M±SE
Description: Immediately after the extraction of all the blood, the liver was quickly removed from all the rats in each group, and the wet weight of each liver was measured. The liver weight ratio of each rat is shown in terms of the liver weight per unit of body weight (100 g) at the time of removal. Extraction of lipid from each liver was performed in accordance with the method described in “A simple method for the isolation and purification of total lipids from animal tissues” (Folch and two other members, Journal of Biological Chemistry, vol. 226, p 497-509, 1957). A part of the lower layer of the liquid liver extract (the chloroform-containing layer) was separated, and the chloroform contained therein was evaporated under nitrogen gas current. The liquid with the chloroform removed was used as a sample for measuring liver lipid contents. The cholesterol, phospholipid, and triglyceride contents in the liver were enzymatically measured with commercial kits (Cholesterol E-Test Wako, Phospholipid C-Test Wako, and Triglyceride E-Test Wako; products of Wako Pure Chemical Industries, Ltd.), respectively.

[6] = test system: cholesterol 7α-hydroxylase; assay: 7α-hydroxylase activity in liver microsome fraction of OLETF rats; type: in vivo, rat; conditions: M±SE
Description: Purified liver microsome fraction was produced according to a normal method, and the cholesterol in the liver microsome fraction was used as the substrate. The activity of cholesterol 7α-hydroxylase was determined by HPLC in accordance with the method described in “An improved method for assay of cholesterol 7α-hydroxylase activity” by Tadashi Ogishima and one other member (USA, Analytical Biochemistry, vol. 158, p 228-232, 1986). The results of measurement of 7α-hydroxylase activity are shown in terms of the amount of HCO (7α-hydroxy-4-cholesten-3-on) generated per 1 mg of protein content in one minute in the microsome fraction (pmol/min/mg of microsome protein).

[7] = test system: streptozotocin (STZ)-induced diabetic rats; conditions: Planta Medica 1994, 1995; cited from earlier work

Compound	Food intake ([1]; average over six weeks)	Body weight ([1]; end of six-week experiment)	Serum Cholesterol [2]	Serum Phospholipid [2]	Serum Triglyceride [2]	Serum FFA [3]	Serum Glucose [3]	Serum IRI (immuno-reactive insulin) [3]	ApoB/apoA-I (×100) ([4]; calculated from apoA-I and apoB)	Serum apoA-I ([4]; end of six-week experiment)	Serum apoB ([4]; end of six-week experiment)	Serum apoE ([4]; end of six-week experiment)	Liver Cholesterol [5] [mg/wet g]	Liver Phospholipid [5] [mg/wet g]	Liver Triglyceride [5] [mg/wet g]	Liver weight [5] [g/100 g B.W.]	7α-hydroxylase [6] [nmol/min/mg protein]	Blood sugar levels [7]
C[C@H]1O[C@H](O[C@H]2[C@H](O)[C@@H](O)[C@@H](O[C@H]3[C@H](O)[C@@H](O)C(O)O[C@@H]3CO)O[C@@H]2CO)[C@H](O)[C@@H](O)[C@@H]1N[C@H]1C=C(CO)[C@@H](O)[C@H](O)[C@H]1O (stereo partly drawn) [Acarbose]	12.9 ± 0.9^a g/rat/day	639 ± 14^b g	150 ± 11^b mg/dL	178 ± 10^b mg/dL	55.6 ± 1.7^c mg/dL	751 ± 38^c μEq/L	193 ± 12^c mg/dL	665 ± 231^b pg/mL	3.15 ± 0.06^c	126 ± 4^a mg/dL	3.95 ± 0.14^b mg/dL	55.5 ± 2.7^b mg/dL	5.39	32.9	75.4	3.40	34.5	
COc1cc(O)c2c(=O)c3c(O)ccc(O)c3oc2c1 [Bellidifolin]																		has a function of reducing blood sugar levels

— patent US20060051436A1, “Composition for controlling excessive calorie intake-induced disorder, food product for controlling excessive calorie intake-induced disorder, skin preparation for external use for controlling excessive calorie intake-induced disorder, and controlling agent for excessive calorie intake-induced …” (Towa Corporation Kabushiki Kaisha, priority 2004, published 2006)
